Data set [1] in a line: Pharmacokinetic test in C57BL/6 mice. As to conditions: mouse, plasma, male C57BL/6 mice. It counts as in vivo. As to the method: Experimental Example 4: Pharmacokinetic Test
Experimental purpose: To study the pharmacokinetics of compounds in C57BL/6 mice.
Experimental materials: C57BL/6 mice (male, 8 weeks old, body weight 25 g-30 g)
Experimental operation: The pharmacokinetic characteristics of rodents after intravenous (IV) and oral (PO) administration of compounds were tested in standard protocols. In the experiment, the candidate compounds were formulated into 1 mg/mL clear solutions, and administered to mice via a single intravenous injection and oral administration. The vehicle of intravenous and oral administration was 5% DMSO/5% polyethylene glycol 15-hydroxystearate (Solutol)/90% aqueous solution. Four male C57BL/6 mice were used in the experiment, wherein two mice were administered intravenously at a dose of 1 mg/kg, and the plasma samples were collected 0.0833, 0.25, 0.5, 1, 2, 4, 6, 8 and 24 h after administration, the other two mice were given oral gavage at a dose of 10 mg/kg, and the plasma samples were collected 0.25, 0.5, 1, 2, 4, 6, 8, and 24 h after administration. Whole blood samples within 24 hours were collected, centrifuged at 3000 g for 15 minutes, and the supernatant was separated to obtain plasma samples. Acetonitrile solution containing internal standard was added thereto to precipitate proteins, the mixture was thoroughly mixed and centrifuged to obtain the supernatant for injection. The plasma concentration was quantified by LC-MS/MS analysis method, and the pharmacokinetic parameters were calculated, such as peak concentration (Cmax), clearance (CL), half-life (T1/2), […] (Vdss), area under the drug-time curve (AUC0-last), bioavailability (F) and so on.

For data set [2], the target named is PD1/PD-L1 (Homo sapiens, UniProt Q9NZQ7). As to the kind of experiment: PD-1/PD-L1 homogeneous time-resolved fluorescence (HTRF) binding experiment. Further details: purchased BPS Biosciences. As to conditions: HTRF (TR-FRET), PD-L1-biotin, PD1-Eu. From the text: Experimental Example 1: PD-1/PD-L1 Homogenouse Time-Resolved Fluorescence (HTRF) Binding Experiment
Chain of PD1/PD-L1 (Q9NZQ7 19-239 limits assumed): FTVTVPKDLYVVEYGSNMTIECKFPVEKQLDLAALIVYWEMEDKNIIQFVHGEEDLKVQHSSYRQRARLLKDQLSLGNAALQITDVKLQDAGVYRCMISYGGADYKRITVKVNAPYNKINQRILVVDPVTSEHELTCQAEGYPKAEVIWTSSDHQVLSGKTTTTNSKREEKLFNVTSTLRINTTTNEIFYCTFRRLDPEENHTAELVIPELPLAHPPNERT
When the PD-1 molecule as the donor is very close to the PD-L1 molecule as the acceptor, the donor molecule will transfer the energy to the receptor molecule, which in turn causes the receptor molecule to emit fluorescence. The ability of small molecules to prevent the binding of PD-L1 to PD-1 can be tested by detecting the intensity of fluorescence. A homogeneous time-resolved fluorescence (HTRF) binding experiment is used to detect the ability of the compounds of the present disclosure to inhibit the binding of PD-1/PD-L1.
PD1/PD-L1 TR-FRET detection kit was purchased from BPS Biosciences. Nivo multi-label analyzer (PerkinElmer).
PD1-Eu, Dye-labeled acceptor, PD-L1-biotin and compounds to be tested were diluted with the buffer in the kit. The compounds to be tested were subjected to 5-fold dilution to eight concentration gradients with a row gun. That is, from 40 μM to 0.5 nM, the DMSO concentration was 4%, and a double-well experiment was set up. 5 μL of inhibitor with each concentration gradient were added to the microwell plate, and 5 μL buffer containing 4% DMSO and 5 μL PD-L1-biotin (PD-L1-biotin) (60 nM) were added into well with the maximum signal (Max) and the well with the minimum signal (Min), only 5 μL of buffer was added to the well with the minimum signal (Min), and the incubation was conducted at 25° C. for 20 minutes. After the incubation was completed, 5 μL of diluted PD1-Eu (10 nM) and […] were added to each well. The reaction system was placed at 25° C. for 90 minutes. The TR-FRET signal was read by a multi-label analyzer after the reaction was completed.
Using the equation (sample−Min)/(Max−Min)×100% to convert the raw data into inhibition rate, and the IC50 value can be obtained by curve fitting with four parameters (obtained from log(inhibitor) vs. response—Variable slope mode in GraphPad Prism). Table 1 provides the inhibitory activity of the compounds of the examples of the present disclosure on PD1/PD-L1 binding
Background: In TR-FRET formats the signal depends on donor and acceptor labels being close together.

Broadly, the bioavailability is dose-corrected exposure relative to a reference, in per cent. The term clearance denotes the volume of plasma or blood freed of the substance per unit of time. For orientation: IC50 means the point on the concentration scale where inhibition reaches its midpoint. Low values mean greater potency in that assay, high ones weaker potency in that assay. Take `COc1nc(-c2cccc(-c3cccc(NC(=O)c4cc(C)c5c(n4)CN(CCO)CC5)c3Cl)c2Cl)cnc1CN1CC(O)C1` [Compound 21]: the bioavailability in data set [1] (PO 10 mg/kg vs IV 1 mg/kg, read-out: Bioavailability F) is 34.9%. Further, the Cmax in data set [1] (IV 1 mg/kg, PO 10 mg/kg (route not given for Cmax), read-out: Peak concentration Cmax) was 117 nM. For the same molecule, the clearance in data set [1] (IV 1 mg/kg, read-out: Clearance CL) amounted to 98.4 mL/min/kg. The half-life in data set [1] (IV 1 mg/kg, read-out: Half-life T1/2 (IV) (converted)) was 11.6 h. The Vd in data set [1] (IV 1 mg/kg, read-out: Tissue distribution Vdss) was 65.6 L/kg. Moreover, in data set [1] (PO 10 mg/kg, read-out: Area under the drug-time curve AUC0-last PO), the AUC(0-t) was determined as 0.796 µM·h. For the same molecule, in data set [2], the IC50 is 7.14 nM.
